29 molecules from article PMC8286840, “Identifying SARS-CoV-2 antiviral compounds by screening for small molecule inhibitors of Nsp3 papain-like protease” (Biochemical Journal, 2021) can be followed below.

Assay [1] concerns the target T1, SARS-CoV-2 PLpro (nsp3 1564–1878) (Severe acute respiratory syndrome coronavirus 2, UniProt P0DTD1). As to the kind of experiment: biochemical. The note with it: low concentration screen, read-out: % of control remaining. Set-up: FRET-quenched peptide (Pro3) cleavage by PLpro, 10 min pre-incubation, slope over 20 min, normalised to no-compound control.
Assay [2] addresses T1, SARS-CoV-2 PLpro (nsp3 1564–1878). As to the kind of experiment: biochemical. On the set-up: FRET-quenched peptide (Pro3) cleavage by PLpro, 10 min pre-incubation, slope over 20 min, normalised to no-compound control. The note with it: high concentration screen, read-out: % of control remaining.

Counter-ions that a name gives are not always drawn. Like-named read-outs stand apart in the source and are kept apart here.

In the case of `O=c1[nH][nH]c2nnc(-c3c(-c4ccccc4)nn4ccccc34)cc12` [ERK Inhibitor II, Negative control], the remaining activity at 1.25 µM in assay [1] (Well no.=2456) turned out to be 98.3%. The remaining activity at 3.75 µM in assay [2] (Well no.=2456) came out at 102%.

In the case of `N/C(=N\N=C\c1ccc(-c2cccc([N+](=O)[O-])c2)o1)N[N+](=O)[O-]` [ERK Inhibitor III], the remaining activity at 1.25 µM in assay [1] (Well no.=2422) turned out to be 101%. Moreover, the remaining activity at 3.75 µM in assay [2] (Well no.=2422) was 104%.

For the molecule `CCN(N=O)c1ccc(O)c(O)c1` [ET-3,4-dephostatin], the remaining activity at 1.25 µM in assay [1] (Well no.=598) is 100%. Moreover, the remaining activity at 3.75 µM in assay [2] (Well no.=598) was 102%.

With `CCCCCCCCCCCCCCCCCCOCC(COP(=O)([O-])OCC[N+](C)(C)C)OC` (stereo not drawn) [ET-18-OCH3], the remaining activity at 1.25 µM in assay [1] (Well no.=502) is 104%. Also, the remaining activity at 3.75 µM in assay [2] (Well no.=502) came to 102%.

Turning to `CC(C)(CCCCCC(O)CCCCCC(C)(C)C(=O)O)C(=O)O` [ETC-1002], the remaining activity at 1.25 µM in assay [1] (Well no.=8628) is 101%. Also, in assay [2] (Well no.=8628), the remaining activity at 3.75 µM amounted to 98.8%.

For `CC(C)(C#N)c1ccc(N2C(=O)OCc3cnc4ccc(-c5cnc6ccccc6c5)cc4c32)cc1` [ETP-46464], the remaining activity at 1.25 µM in assay [1] (Well no.=5557) stood at 101%. In assay [2] (Well no.=5557), the remaining activity at 3.75 µM stood at 97.9%.

For `NC(=O)C1CCCc2c1[nH]c1ccc(Cl)cc21` (stereo not drawn) [EX 527], in assay [1] (Well no.=5287), the remaining activity at 1.25 µM was determined as 99%. Further, the remaining activity at 3.75 µM in assay [2] (Well no.=5287) stood at 97.8%.

In the case of `CC[C@@H](C)[C@@H](O)[C@H](C)C(=O)[C@H](C)/C=C(\C)C[C@H](C)[C@@H]1OC(=O)[C@H]1CC` [Ebelactone B], the remaining activity at 1.25 µM in assay [1] (Well no.=3269) stood at 103%. For the same molecule, the remaining activity at 3.75 µM in assay [2] (Well no.=3269) was 104%.

For `NC(N)=Nc1nc(CSCCN/C=N/S(=O)(=O)c2ccc(Br)cc2)cs1` [Ebrotidine], the remaining activity at 1.25 µM in assay [1] (Well no.=7003) was 106%. The remaining activity at 3.75 µM in assay [2] (Well no.=7003) turned out to be 103%.

For the molecule `C[C@H]([C@H](O)CCC(C)(C)O)[C@H]1CC[C@@]2(O)C3=CC(=O)[C@@H]4C[C@@H](O)[C@@H](O)C[C@]4(C)[C@H]3CC[C@]12C` [Ecdysone], the remaining activity at 1.25 µM in assay [1] (Well no.=3643) came to 104%. The remaining activity at 3.75 µM in assay [2] (Well no.=3643) was determined as 102%.

As to `COc1cc2c(cc1O)CCN[C@]21CS[C@@H]2c3c(OC(C)=O)c(C)c4c(c3[C@H](COC1=O)N1[C@@H]2[C@H]2c3c(cc(C)c(OC)c3O)C[C@@H]([C@@H]1C#N)N2C)OCO4` [Ecteinascidin 770], the remaining activity at 1.25 µM in assay [1] (Well no.=7070) is 100%. For the same molecule, in assay [2] (Well no.=7070), the remaining activity at 3.75 µM was 97.2%.

Take `CCCCCCCCCCCCCCCCCCOCC(COP(=O)([O-])OCC[N+](C)(C)C)OC` (stereo not drawn) [Edelfosine]: in assay [1] (Well no.=5699), the remaining activity at 1.25 µM is 95.5%. Also, the remaining activity at 3.75 µM in assay [2] (Well no.=5699) was 96.4%.

Turning to `CN1CCc2nc(C(=O)N[C@@H]3C[C@@H](C(=O)N(C)C)CC[C@@H]3NC(=O)C(=O)Nc3ccc(Cl)cn3)sc2C1` [Edoxaban], in assay [1] (Well no.=8572), the remaining activity at 1.25 µM was 99.4%. Moreover, in assay [2] (Well no.=8572), the remaining activity at 3.75 µM stood at 97.7%.

As to `CC[N+](C)(C)c1cccc(O)c1` [Edrophonium chloride], in assay [1] (Well no.=555), the remaining activity at 1.25 µM stood at 99.7%. Moreover, the remaining activity at 3.75 µM in assay [2] (Well no.=555) was found to be 100%.

For the molecule `CCC1(C2=NCCN2)Cc2ccccc2O1` (stereo not drawn) [Efaroxan hydrochloride], the remaining activity at 1.25 µM in assay [1] (Well no.=603) is 97.3%. Further, in assay [2] (Well no.=603), the remaining activity at 3.75 µM is 96.2%.

On to `O=C1Nc2ccc(Cl)cc2[C@@](C#CC2CC2)(C(F)(F)F)O1` [Efavirenz], for which the remaining activity at 1.25 µM in assay [1] (Well no.=2248) came out at 97.1%. In assay [2] (Well no.=2248), the remaining activity at 3.75 µM was determined as 101%.

Take `NCCCC(N)(C(=O)O)C(F)F` (stereo not drawn) [Eflornithine hydrochloride hydrate]: the remaining activity at 1.25 µM in assay [1] (Well no.=8636) was 104%. Moreover, in assay [2] (Well no.=8636), the remaining activity at 3.75 µM was 95.7%.

Consider `CCCCCCCCCCC/C=C\C/C=C\CCCC(=O)O` [Eicosa-5,8-dienoic acid (20:2 n-12)], for which the remaining activity at 1.25 µM in assay [1] (Well no.=4309) is 102%. In assay [2] (Well no.=4309), the remaining activity at 3.75 µM was 106%.

Regarding `CCCCCCCCCCCCCCCCCCCC(=O)O` [Eicosanoic acid], the remaining activity at 1.25 µM in assay [1] (Well no.=4400) was found to be 94.6%. For the same molecule, the remaining activity at 3.75 µM in assay [2] (Well no.=4400) was 93.4%.

Turning to `CC/C=C\C/C=C\C/C=C\C/C=C\C/C=C\CCCC(=O)O` [Eicosapentaenoic acid], the remaining activity at 1.25 µM in assay [1] (Well no.=4251) amounted to 103%; in assay [1] (Well no.=4448), 92.3%; in assay [1] (Well no.=7315) it was 108%. The remaining activity at 3.75 µM in assay [2] (Well no.=4251) was 101%; in assay [2] (Well no.=4448), 96.1%; in assay [2] (Well no.=7315), 103%.

For `CCCCCCCC/C=C/CCCCCCCC(=O)OC[C@H]1O[C@@H](n2ccc(N)nc2=O)[C@@H](O)[C@@H]1O` [Elacytarabine], the remaining activity at 1.25 µM in assay [1] (Well no.=7716) came out at 105%. Moreover, in assay [2] (Well no.=7716), the remaining activity at 3.75 µM turned out to be 110%.

On to `CSc1ccc(C(=O)/C=C/c2cc(C)c(OC(C)(C)C(=O)O)c(C)c2)cc1` [Elafibranor], for which, in assay [1] (Well no.=8106), the remaining activity at 1.25 µM was determined as 96.6%. In assay [2] (Well no.=8106), the remaining activity at 3.75 µM came out at 95.3%.

Take `COc1cccc(-c2c(C)n(Cc3c(F)cccc3C(F)(F)F)c(=O)n(C[C@H](NCCCC(=O)O)c3ccccc3)c2=O)c1F` [Elagolix]: the remaining activity at 1.25 µM in assay [1] (Well no.=7420) was determined as 97.8%. Besides, the remaining activity at 3.75 µM in assay [2] (Well no.=7420) was found to be 94.7%.

With `CCCCCCCC/C=C/CCCCCCCC(=O)O` [Elaidic acid], the remaining activity at 1.25 µM in assay [1] (Well no.=7259) came out at 96%. Moreover, the remaining activity at 3.75 µM in assay [2] (Well no.=7259) was found to be 87.3%.

Turning to `CN(NC(=O)CC(=O)NN(C)C(=S)c1ccccc1)C(=S)c1ccccc1` [Elesclomol], the remaining activity at 1.25 µM in assay [1] (Well no.=5001) stood at 104%; in assay [1] (Well no.=6406) it was 102%. Also, the remaining activity at 3.75 µM in assay [2] (Well no.=5001) was 107%; in assay [2] (Well no.=6406), 111%.

With `CCCCCCCC(=O)N[C@H](CN1CCCC1)[C@H](O)c1ccc2c(c1)OCCO2` [Eliglustat], in assay [1] (Well no.=8530), the remaining activity at 1.25 µM came to 100%. Also, the remaining activity at 3.75 µM in assay [2] (Well no.=8530) is 99%.

In the case of `O=c1oc2c(O)c(O)cc3c(=O)oc4c(O)c(O)cc1c4c23` [Ellagic acid], the remaining activity at 1.25 µM in assay [1] (Well no.=3346) worked out at 99.4%. For the same molecule, in assay [2] (Well no.=3346), the remaining activity at 3.75 µM was determined as 101%.

As to `Cc1c2ccncc2c(C)c2c1[nH]c1ccccc12` [Ellipticine], the remaining activity at 1.25 µM in assay [1] (Well no.=651) came to 95.5%; in assay [1] (Well no.=3271), 102%. Moreover, the results for the remaining activity at 3.75 µM in assay [2] (Well no.=651) and in assay [2] (Well no.=3271) were 91.7% and 98%, respectively.

Regarding `COc1cc2c(cc1Cc1cccc(Cl)c1F)c(=O)c(C(=O)O)cn2[C@H](CO)C(C)C` [Elvitegravir (GS-9137)], in assay [1] (Well no.=5008), the remaining activity at 1.25 µM is 99.3%. Further, the remaining activity at 3.75 µM in assay [2] (Well no.=5008) was 101%.
